pIC50: −log10 of the molar value. ≈ marks a conversion by molar mass, not a printed value.
Experiments:
[1] = molecular target: KRAS G12C (GMPPNP-loaded) and cRAF (Ras-binding domain) interaction (Homo sapiens (Human), UniProt P01116, C118S/C51S/C80L/G12C); test: Inhibition of KRAS G12C and cRAF binding (AlphaScreen); details: KRAS G12C loaded with GMPPNP, cRaf RBD, 2 hours preincubation; read-out: Raf-1 RBD K-Ras IC50
Method in brief: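 AlphaScreen readout (680 nm excitation, 570 nm emission) of RBD binding after a 60-90 min bead step at room temperature. This step follows 2 h compound exposure of GMPPNP-preloaded KRAS G12C in Hepes pH 7.4 buffer with MgCl2 and 10 μM GMPPNP.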

[2] = Determination of kinetic solubility (pH 7.4); type: physicochemical; details: for solubility kinetic at 2 h: phosphate buffer, pH 7.4, aqueous buffer, kinetic from dmso stock, 50 mM phosphate buffer pH 7.4, read-out: Ksol, pH 7.4
Description: 490 μL of a 50 mM phosphate buffer (pH 7.4) was added to the sample solution. The mixture was vortexed for at least 2 minutes. The vial was shaken on a Barnstead shaker at 800 rpm at room temperature for 2 hours. The vial was centrifuged at 4000 rpm for 20 minutes. The Mini-UniPrep vial was compressed to prepare a filtrate, which was injected into an HPLC-UV and LC-MS/MS system. Kinetic solubility was calculated by referencing sample peak areas to a standard calibration curve.

[3] = Determination of logD (1-octanol / phosphate buffer pH 7.4); type: physicochemical; details: for logD: 1-octanol/phosphate buffer, pH 7.4, pH 7.4, 1-octanol/phosphate buffer, read-out: Log D, pH 7.4
Description: Preparation of phosphate buffer saturated with 1-octanol: 10 mL of 100 mM phosphate buffer (pH 7.4) was added to 100 mL of 1-octanol. The mixture was shaken vigorously and left to stand at room temperature overnight.
Preparation of 1-octanol saturated with phosphate buffer: 10 mL of 1-octanol was added to 100 mL of 100 mM phosphate buffer (pH 7.4). The mixture was shaken vigorously and left to stand at room temperature overnight.
149 μL of phosphate buffer saturated with 1-octanol was added into 1st sample tube. 149 μL of 1-octanol saturated with phosphate buffer was added into the 2nd sample tube. The sample tubes were mixed vigorously and shaken for 1 hour at a speed of 800 rpm at room temperature. The sample tubes were subjected to centrifugation at 4000 rpm for 5 minutes at room temperature. Samples of the supernatant were taken from both tubes, diluted with an appropriate LCMS buffer, and analyzed on an LCMS instrument. LogD was calculated according to the following equation.

Chain of KRAS G12C (GMPPNP-loaded) and cRAF (Ras-binding domain) interaction (P01116 other isoform, or with tags, fused parts or gaps G12C/C51S/C80L/C118S): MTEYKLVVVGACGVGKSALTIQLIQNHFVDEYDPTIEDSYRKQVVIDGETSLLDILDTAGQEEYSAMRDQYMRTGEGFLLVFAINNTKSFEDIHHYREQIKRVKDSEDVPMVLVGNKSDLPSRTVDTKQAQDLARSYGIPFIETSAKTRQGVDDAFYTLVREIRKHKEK

Compound | pIC50 [1] | solubility kinetic at 2 h [2] [µg/mL] | logD [3] | Ksol, pH 7.4 (ug/mL) ([2]; 50 mM phosphate buffer pH 7.4) | Log D, pH 7.4 ([3]; pH 7.4, 1-octanol/phosphate buffer)
CC(C)c1noc(/C=C/C(=O)N2CCN(c3nc(OC[C@@]45CCCN4C[C@H](F)C5)nc4c(F)c(-c5ccccc5C(F)F)ncc34)C[C@@H]2CC#N)n1 [Compound 152] | < 6.30 | 126 (≈ 175 µM) | 2.62 | – | –
Cc1c(F)ccc2cccc(-c3ncc4c(N5CCN(C(=O)/C=C/CN6CC7CC(C6)O7)[C@@H](CC#N)C5)nc(OC[C@@]56CCCN5C[C@H](F)C6)nc4c3F)c12 [Compound 247] | > 8.00 | 88.6 (≈ 118 µM) | 3.02 | – | –
Cn1cc(/C=C/C(=O)N2CCN(c3nc(OCC45CCCN4CCC5)nc4c3CCN(c3cccc5cccc(Cl)c35)C4)C[C@@H]2CC#N)nn1 [Compound 117] | < 6.30 | 112 (≈ 161 µM) | 2.65 | – | –
N#CC[C@H]1CN(c2nc(OCC34CCCN3CCC4)nc3c2CCN(c2cccc4cccc(Cl)c24)C3)CCN1C(=O)/C=C/CN1[C@@H]2CC[C@H]1COC2 [Compound 168] | > 8.00 | 104 (≈ 142 µM) | 2.59 | – | –
N#CC[C@H]1CN(c2nc(OCC34CCCN3CCC4)nc3c(F)c(-c4cccc5cccc(Cl)c45)ncc23)CCN1C(=O)/C=C/c1nc([C@H]2C[C@@H]2F)no1 [Compound 38] | 6.30 to 7.00 | 53.9 (≈ 71.7 µM) | 2.91 | – | –
Cc1noc(/C=C/C(=O)N2CCN(c3nc(OCC45CCCN4CCC5)nc4c3CCN(c3cccc5cccc(Cl)c35)C4)C[C@@H]2CC#N)n1 [Compound 32] | 7.00 to 8.00 | – | – | 79.78 | 3.62
N#CC[C@H]1CN(c2nc(OC[C@@]34CCCN3C[C@H](F)C4)nc3c(F)c(-c4ccccc4C(F)F)ncc23)CCN1C(=O)/C=C/CN1[C@@H]2CC[C@H]1COC2 [Compound 289] | 7.00 to 8.00 | 140 (≈ 190 µM) | 2.16 | – | –
N#CC[C@H]1CN(c2nc(OC[C@@]34CCCN3C[C@H](F)C4)nc3c(F)c(-c4cccc5cccc(Cl)c45)ncc23)CCN1C(=O)/C=C/CN1CCOC2CC21 (stereo partly drawn) [Compound 274] | 7.00 to 8.00 | 76.2 (≈ 101 µM) | 3.14 | – | –
CC1(c2noc(/C=C/C(=O)N3CCN(c4nc(OCC56CCCN5CCC6)nc5c(F)c(-c6cccc7cccc(Cl)c67)ncc45)C[C@@H]3CC#N)n2)CC1 [Compound 118] | 6.30 to 7.00 | 4.73 (≈ 6.32 µM) | 3.24 | – | –
Cc1cc(N)nc([C@H]2Cc3nc(OC[C@@]45CCCN4C[C@H](F)C5)nc(N4CCN(C(=O)/C=C/CN(C)C)[C@@H](CC#N)C4)c3C[C@@H]2C)c1C(F)(F)F [Compound 323] | 6.30 to 7.00 | 74.5 (≈ 104 µM) | 2.71 | – | –
CC(C)(C)c1noc(/C=C/C(=O)N2CCN(c3nc(OC[C@@]45CCCN4C[C@H](F)C5)nc4c(F)c(-c5cccc6cccc(Cl)c56)ncc34)C[C@@H]2CC#N)n1 [Compound 34] | 6.30 to 7.00 | 0.01 (≈ 0.013 µM) | 5.11 | – | –
N#CC[C@H]1CN(c2nc(OC[C@@]34CCCN3C[C@H](F)C4)nc3c(F)c(-c4cccc5cccc(Cl)c45)ncc23)CCN1C(=O)/C=C/c1nc([C@H]2C[C@@H]2F)no1 [Compound 15, 2-((S)-4-(7-(8-chloronaphthalen-1-yl)-8-fluoro-2-(((2R,7aS)-2-fluorotetrahydro-1H-pyrrolizin-7a(5H)-yl)methoxy)pyrido[4,3-d]pyrimidin-4-yl)-1-((E)-3-(3-((1R,2S)-2-fluorocyclopropyl)-1,2,4-oxadiazol-5-yl)acryloyl)piperazin-2-yl)acetonitrile] | 6.30 to 7.00 | 0.01 (≈ 0.013 µM) | 4.24 | – | –
N#CC[C@H]1CN(c2nc(OCC34CCCN3CCC4)nc3c2CCN(c2cccc4cccc(Cl)c24)C3)CCN1C(=O)/C=C/CN1CC(F)C1 [Compound 201] | 7.00 to 8.00 | 119 (≈ 171 µM) | 2.76 | – | –
N#CC[C@H]1CN(c2nc(OCC34CCCN3CCC4)nc3c2CCN(c2cccc4cccc(Cl)c24)C3)CCN1C(=O)/C=C/c1nc([C@H]2C[C@@H]2F)no1 [Compound 36] | 7.00 to 8.00 | 2.62 (≈ 3.55 µM) | 3.98 | – | –
N#CC[C@H]1CN(c2nc(OC[C@@]34CCCN3C[C@H](F)C4)nc3c(F)c(-c4cccc5cccc(F)c45)ncc23)CCN1C(=O)/C=C/CN1CC2CCC(C1)O2 [Compound 245] | 7.00 to 8.00 | 74.4 (≈ 98.8 µM) | 2.91 | – | –
Cn1cnc(/C=C/C(=O)N2CCN(c3nc(OCC45CCCN4CCC5)nc4c3CCN(c3cccc5cccc(Cl)c35)C4)C[C@@H]2CC#N)n1 [Compound 21] | < 6.30 | 89.8 (≈ 130 µM) | 2.48 | – | –

The remaining lines, values ahead:

pIC50 [1] | solubility kinetic at 2 h [2] [µg/mL] | logD [3] | Ksol, pH 7.4 (ug/mL) ([2]; 50 mM phosphate buffer pH 7.4) | Log D, pH 7.4 ([3]; pH 7.4, 1-octanol/phosphate buffer) | Compound
> 8.00 | 127 (≈ 167 µM) | 2.6 | – | – | N#CC[C@H]1CN(c2nc(OC[C@@]34CCCN3C[C@H](F)C4)nc3c(F)c(-c4cccc5cccc(Cl)c45)ncc23)CCN1C(=O)/C=C/CN1CCCOCC1 [Compound 109, 2-((S)-1-((E)-4-(1,4-oxazepan-4-yl)but-2-enoyl)-4-(7-(8-chloronaphthalen-1-yl)-8-fluoro-2-(((2R,7aS)-2-fluorohexahydro-1H-pyrrolizin-7a-yl)methoxy)pyrido[4,3-d]pyrimidin-4-yl)piperazin-2-yl)acetonitrile]
> 8.00 | 114 (≈ 148 µM) | 2.01 | – | – | N#CC[C@H]1CN(c2nc(OCC34CCCN3CCC4)nc3c2CCN(c2cccc4cccc(Cl)c24)C3)CCN1C(=O)/C=C/CN1CCN(C2COC2)CC1 [Compound 317]
> 8.00 | 135 (≈ 178 µM) | 1.87 | – | – | N#CC[C@H]1CN(c2nc(OC[C@@]34CCCN3C[C@H](F)C4)nc3c(F)c(-c4cccc5ccc(F)c(F)c45)ncc23)CCN1C(=O)/C=C/CN1C[C@@H]2C[C@H]1CO2 [Compound 225]
> 8.00 | 70.4 (≈ 90.6 µM) | 3.54 | – | – | C#Cc1c(F)ccc2cccc(-c3ncc4c(N5CCN(C(=O)/C=C/CN6CC7CCC(C6)O7)[C@@H](CC#N)C5)nc(OC[C@@]56CCCN5C[C@H](F)C6)nc4c3F)c12 [Compound 285]
> 8.00 | 4.99 (≈ 6.8 µM) | 3.79 | – | – | Cc1nccc(/C=C/C(=O)N2CCN(c3nc(OC[C@@]45CCCN4C[C@H](F)C5)nc4c(F)c(-c5cccc6ccc(F)c(C)c56)ncc34)C[C@@H]2CC#N)n1 [Compound 254]
> 8.00 | 124 (≈ 170 µM) | 2.66 | – | – | N#CC[C@H]1CN(c2nc(OC[C@@]34CCCN3C[C@H](O)C4)nc3c2CCN(c2cccc4cccc(Cl)c24)C3)CCN1C(=O)/C=C/CN1CCOCC1 [Compound 316]
> 8.00 | 34.8 (≈ 46.9 µM) | 3.68 | – | – | N#CC[C@H]1CN(c2nc(OC[C@@]34CCCN3C[C@H](F)C4)nc3c(F)c(-c4cccc5cccc(F)c45)ncc23)CCN1C(=O)/C=C/CN1CCSCC1 [Compound 232]
> 8.00 | 88 (≈ 114 µM) | 3 | – | – | N#CC[C@H]1CN(c2nc(OC[C@@]34CCCN3C[C@H](F)C4)nc3c(F)c(-c4cccc5cccc(Cl)c45)ncc23)CCN1C(=O)/C=C/CN1CC2CCC1CO2 (stereo partly drawn) [Compound 108, 2-((2S)-1-((E)-4-(2-oxa-5-azabicyclo[2.2.2]octan-5-yl)but-2-enoyl)-4-(7-(8-chloronaphthalen-1-yl)-8-fluoro-2-(((2R,7aS)-2-fluorohexahydro-1H-pyrrolizin-7a-yl)methoxy)pyrido[4,3-d]pyrimidin-4-yl)piperazin-2-yl)acetonitrile]
> 8.00 | 118 (≈ 155 µM) | 4.21 | – | – | C[C@H]1CN(C/C=C/C(=O)N2CCN(c3nc(OC[C@@]45CCCN4C[C@H](F)C5)nc4c(F)c(-c5cccc(Cl)c5C5CC5)ncc34)C[C@@H]2CC#N)C[C@H](C)O1 [Compound 302]
> 8.00 | 0.28 (≈ 0.367 µM) | 2.61 | – | – | N#CC[C@H]1CN(c2nc(OC[C@@]34CCCN3C[C@H](F)C4)nc3c(F)c(-c4cccc5cccc(Cl)c45)ncc23)CCN1C(=O)/C=C/c1nc(C(F)F)no1 [Compound 20]
> 8.00 | 106 (≈ 140 µM) | 2.55 | – | – | Cc1nsc(/C=C/C(=O)N2CCN(c3nc(OC[C@@]45CCCN4C[C@H](F)C5)nc4c(F)c(-c5nc(N)cc(C)c5C(F)(F)F)ncc34)C[C@@H]2CC#N)n1 [Compound 142]

Reference: patent US20250129103A1, “METHODS FOR TREATMENT OF CANCER” (Frontier Medicines Corporation, priority 2022, published 2025)
